From PubChem BioAssay AID1259407 (Chemical Carcinogenesis Research Information System (CCRIS), 2018)
The source made the active and inactive calls. How the calls were made is not given here.

Tested on: CCRIS mutagenicity, Ames/micronucleus/aberration tests
Experiment: CCRIS mutagenicity studies
Conditions: Test System: AMES SALMONELLA TYPHIMURIUM

Measured: mutagenic call

C=CC(=O)OCCCCCCOC(=O)C=C
inactive: Strain/Indicator: TA97, Metabolic Activation: HAMSTER, LIVER, S-9, AROCLOR 1254 (10%), Method: PREINCUBATION inactive; negative | Strain/Indicator: TA97, Metabolic Activation: HAMSTER, LIVER, S-9, AROCLOR 1254 (30%), Method: PREINCUBATION inactive; negative | Strain/Indicator: TA97, Metabolic Activation: NONE, Method: PREINCUBATION inactive; negative | Strain/Indicator: TA97, Metabolic Activation: RAT, LIVER, S-9, AROCLOR 1254 (10%), Method: PREINCUBATION inactive; negative | Strain/Indicator: TA97, Metabolic Activation: RAT, LIVER, S-9, AROCLOR 1254 (30%), Method: PREINCUBATION inactive; negative | Strain/Indicator: TA98, Metabolic Activation: HAMSTER, LIVER, S-9, AROCLOR 1254 (10%), Method: PREINCUBATION inactive; negative | Strain/Indicator: TA98, Metabolic Activation: HAMSTER, LIVER, S-9, AROCLOR 1254 (30%), Method: PREINCUBATION inactive; negative | Strain/Indicator: TA98, Metabolic Activation: NONE, Method: PREINCUBATION inactive; negative | Strain/Indicator: TA98, Metabolic Activation: NONE, Method: STANDARD PLATE inactive; negative | Strain/Indicator: TA98, Metabolic Activation: RAT, LIVER, S-9, AROCLOR 1254 (10%), Method: PREINCUBATION inactive; negative | Strain/Indicator: TA98, Metabolic Activation: RAT, LIVER, S-9, AROCLOR 1254 (30%), Method: PREINCUBATION inactive; negative | Strain/Indicator: TA98, Metabolic Activation: RAT, LIVER, S-9, AROCLOR 1254, Method: STANDARD PLATE inactive; negative | Strain/Indicator: TA98, Metabolic Activation: RAT, LIVER, S-9, SODIUM PHENOBARBITAL, Method: STANDARD PLATE inactive; negative | Strain/Indicator: TA100, Metabolic Activation: HAMSTER, LIVER, S-9, AROCLOR 1254 (10%), Method: PREINCUBATION inactive; negative | Strain/Indicator: TA100, Metabolic Activation: HAMSTER, LIVER, S-9, AROCLOR 1254 (30%), Method: PREINCUBATION inactive; negative | Strain/Indicator: TA100, Metabolic Activation: NONE, Method: PREINCUBATION inactive; negative | Strain/Indicator: TA100, Metabolic Activation: NONE, Method: STANDARD PLATE inactive; negative | Strain/Indicator: TA100, Metabolic Activation: RAT, LIVER, S-9, AROCLOR 1254 (10%), Method: PREINCUBATION inactive; negative | Strain/Indicator: TA100, Metabolic Activation: RAT, LIVER, S-9, AROCLOR 1254 (30%), Method: PREINCUBATION inactive; negative | Strain/Indicator: TA100, Metabolic Activation: RAT, LIVER, S-9, AROCLOR 1254, Method: STANDARD PLATE inactive; negative | Strain/Indicator: TA100, Metabolic Activation: RAT, LIVER, S-9, SODIUM PHENOBARBITAL, Method: STANDARD PLATE inactive; negative | Strain/Indicator: TA1535, Metabolic Activation: HAMSTER, LIVER, S-9, AROCLOR 1254 (10%), Method: PREINCUBATION inactive; negative | Strain/Indicator: TA1535, Metabolic Activation: HAMSTER, LIVER, S-9, AROCLOR 1254 (30%), Method: PREINCUBATION inactive; negative | Strain/Indicator: TA1535, Metabolic Activation: NONE, Method: PREINCUBATION inactive; negative | Strain/Indicator: TA1535, Metabolic Activation: NONE, Method: STANDARD PLATE inactive; negative | Strain/Indicator: TA1535, Metabolic Activation: RAT, LIVER, S-9, AROCLOR 1254 (10%), Method: PREINCUBATION inactive; negative | Strain/Indicator: TA1535, Metabolic Activation: RAT, LIVER, S-9, AROCLOR 1254 (30%), Method: PREINCUBATION inactive; negative | Strain/Indicator: TA1535, Metabolic Activation: RAT, LIVER, S-9, AROCLOR 1254, Method: STANDARD PLATE inactive; negative | Strain/Indicator: TA1535, Metabolic Activation: RAT, LIVER, S-9, SODIUM PHENOBARBITAL, Method: STANDARD PLATE inactive; negative | Strain/Indicator: TA1537, Metabolic Activation: HAMSTER, LIVER, S-9, AROCLOR 1254 (10%), Method: PREINCUBATION inactive; negative | Strain/Indicator: TA1537, Metabolic Activation: NONE, Method: PREINCUBATION inactive; negative | Strain/Indicator: TA1537, Metabolic Activation: NONE, Method: STANDARD PLATE inactive; negative | Strain/Indicator: TA1537, Metabolic Activation: RAT, LIVER, S-9, AROCLOR 1254 (10%), Method: PREINCUBATION inactive; negative | Strain/Indicator: TA1537, Metabolic Activation: RAT, LIVER, S-9, AROCLOR 1254, Method: STANDARD PLATE inactive; negative | Strain/Indicator: TA1537, Metabolic Activation: RAT, LIVER, S-9, SODIUM PHENOBARBITAL, Method: STANDARD PLATE inactive; negative | Strain/Indicator: TA1538, Metabolic Activation: NONE, Method: STANDARD PLATE inactive; negative | Strain/Indicator: TA1538, Metabolic Activation: RAT, LIVER, S-9, AROCLOR 1254, Method: STANDARD PLATE inactive; negative | Strain/Indicator: TA1538, Metabolic Activation: RAT, LIVER, S-9, SODIUM PHENOBARBITAL, Method: STANDARD PLATE inactive; negative
